Where a name gives a salt, the structure may show the parent alone.

For the experiment, the target named is T1, rh beta tryptase (Homo sapiens, UniProt Q15661).
T1 construct: purchased Promega
T1 sequence (Q15661 31-275): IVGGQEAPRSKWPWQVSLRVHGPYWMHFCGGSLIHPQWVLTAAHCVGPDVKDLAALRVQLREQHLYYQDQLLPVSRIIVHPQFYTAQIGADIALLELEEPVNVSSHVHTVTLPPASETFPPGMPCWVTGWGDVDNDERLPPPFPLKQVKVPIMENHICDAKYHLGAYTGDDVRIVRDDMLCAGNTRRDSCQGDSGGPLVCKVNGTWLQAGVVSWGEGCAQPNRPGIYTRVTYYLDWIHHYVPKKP
As to the kind of experiment: tryptase inhibition in vitro test (cleavage of N-p-tosyl-Gly-Pro-Lys-para-nitroaniline, p-nitroaniline measured at 405 nm). The class given is biochemical. To be noted: rh beta tryptase 0.91 U/ml, substrate 0.6 mM, Tris HCl buffer with calcium and heparin, pH 7.4, 37° C., 5 minutes incubation; read-out: Tryptase-inhibiting activity. Here is the method: The compounds according to the invention are characterised by their tryptase-inhibiting activity. This ability to inhibit tryptase was investigated using the test described below.
The measurement is carried out in Tris HCl buffer (100 mM), which additionally contains calcium (5 mM) and heparin ([…]), at pH 7.4. The standard used is rh beta tryptase which may be obtained commercially from Promega, for example. The substrate used is N-p-tosyl-Gly-Pro-Lys-para-nitroaniline in a concentration of 0.6 mM. The substrate is digested with tryptase to form p-nitroaniline which can be measured at 405 nm. Usually, an incubation period of 5 minutes and an incubation temperature of 37° C. are chosen. The enzyme activity used is 0.91 U/ml. The measurements are carried out in an Autoanalyser (Cobas Bio) made by Hofmann LaRoche. The potential inhibitory substances are used in concentrations of 10 μM in the screening, the inhibition of the tryptase being given in percent. The IC50 is determined at over 70% inhibition (concentration at which 50% of the enzyme activity is inhibited). After 5 minutes' pre-incubation of the potential inhibitory substances, the substrate is added to start the reaction, the formation of p-nitroaniline being taken as a measurement of the enzyme activity after 5 minutes, after testing the linearity.
With `Cn1c(CCc2ccc(C(=N)N)cc2)nc2cc(N(Cc3cccc4ccccc34)C(=O)N3CCC(Nc4ccccn4)CC3)ccc21` [Example 79, N-{2-[2-(4-Amidinophenyl)-ethyl]-1-methyl-benzimidazol-5-yl}-N-[naphth-1-ylmethyl]-N′-[4-(2-pyridyl)-amino]-piperid-1-ine-urea, hydrochloride], the IC50 fell in the range of 31 to 1000 nM.
On to `Cn1c(CCc2ccc(C(=N)N)cc2)nc2cc(N(Cc3cccc4ccccc34)C(=O)Nc3ccccc3)ccc21` [Example 72, N-{2-[2-(4-Amidinophenyl)-ethyl]-1-methyl-benzimidazol-5-yl}-N-[naphth-1-ylmethyl]-N′-phenyl-urea, hydrochloride], for which the IC50 lay within 31 to 1000 nM.
As for `Cn1c(CCc2ccc(C(=N)N)cc2)nc2cc(N(Cc3ccccc3)C(=O)CN3CCC(Nc4ccccc4F)CC3)ccc21` [Example 59, N-{2-[2-(4-Amidinophenyl)-ethyl]-1-methyl-benzimidazol-5-yl}-N-benzyl-2-[4-(2-fluorophenylamino)-piperid-1-yl]-acetamide, dihydrochloride], the figure is 0.5 to 3 nM; as for `CN(C(=O)CN1CCC(Nc2ccccc2I)CC1)c1ccc2c(c1)nc(CCc1ccc(C(=N)N)cc1)n2C` [Example 37, N-{2-[2-(4-Amidinophenyl)-ethyl]-1-methyl-benzimidazol-5-yl}-N-methyl-2-[4-(2-iodophenylamino)-piperid-1-yl]-acetamide, dihydrochloride], 0.5 to 3 nM; as for `CCOC(=O)CCN(C)C1CCN(CC(=O)N(Cc2cccc3ccccc23)c2ccc3c(c2)nc(CCc2ccc(C(=N)N)cc2)n3C)CC1` [Example 21, N-{2-[2-(4-Amidinophenyl)-ethyl]-1-methyl-benzimidazol-5-yl}-N-[naphth-1-ylmethyl]-2-[4-(ethyl N-methyl-N-propionate)-piperid-1-yl]-acetamide, trihydrochloride], 4 to 30 nM.
The same measure for `Cn1c(CCc2ccc(C(=N)N)cc2)nc2cc(NC(=O)N3CCC(Nc4ccccn4)CC3)ccc21` [Example 82, N-{2-[2-(4-Amidinophenyl)-ethyl]-1-methyl-benzimidazol-5-yl}-N′-[4-(2-pyridyl)-amino]-piperid-1-ine urea, hydrochloride]: 31 to 1000 nM; for `Cn1c(CCc2ccc(C(=N)N)cc2)nc2cc(N(Cc3cccc4ccccc34)C(=O)CN3CCC(Nc4ccc(OCc5ccccc5)cc4)CC3)ccc21` [Example 17, N-{2-[2-(4-Amidinophenyl)-ethyl]-1-methyl-benzimidazol-5-yl}-N-[naphth-1-ylmethyl]-2-[4-(4-benzyloxy-phenylamino)-piperid-1-yl]-acetamide, dihydrochloride]: 4 to 30 nM.
As for `CCOC(=O)CCN(C(=O)CN1CCC(Nc2ccccn2)CC1)c1ccc2c(c1)nc(CCc1ccc(C(=N)N)cc1)n2C` [Example 53, N-{2-[2-(4-Amidinophenyl)-ethyl]-1-methyl-benzimidazol-5-yl}-N-[ethyl ethanecarboxylate]-2-[4-(2-pyridylamino)-piperid-1-yl]-acetamide, dihydrochloride], the figure is 4 to 30 nM; as for `Cn1c(CCc2ccc(C(=N)N)cc2)nc2cc(NC(=O)CN3CCC(Nc4ccccn4)CC3)ccc21` [Example 52, N-{2-[2-(4-Amidinophenyl)-ethyl]-1-methyl-benzimidazol-5-yl}-2-[4-(2-pyridylamino)-piperid-1-yl]-acetamide, dihydrochloride], 31 to 1000 nM.
Regarding `Cn1c(CCc2ccc(C(=N)N)cc2)nc2cc(N(Cc3cccc4ccccc34)C(=O)CN3CCC(Cc4ccccn4)CC3)ccc21` [Example 20, N-{2-[2-(4-Amidinophenyl)-ethyl]-1-methyl-benzimidazol-5-yl}-N-[naphth-1-ylmethyl]-2-[4-(2-pyridylmethyl)-piperid-1-yl]-acetamide, dihydrochloride], the IC50 lay within 4 to 30 nM.
The same measure for `CN(C(=O)CN1CCC(Nc2ccc(Cl)cc2Cl)CC1)c1ccc2c(c1)nc(CCc1ccc(C(=N)N)cc1)n2C` [Example 32, N-{2-[2-(4-Amidinophenyl)-ethyl]-1-methyl-benzimidazol-5-yl}-N-methyl-2-[4-(2,4-dichlorophenylamino)-piperid-1-yl]-acetamide, dihydrochloride]: 0.5 to 3 nM; for `CN(C(=O)CN1CCC(N(C)c2ccc3ccccc3c2)CC1)c1ccc2c(c1)nc(CCc1ccc(C(=N)N)cc1)n2C` [Example 34, N-{2-[2-(4-Amidinophenyl)-ethyl]-1-methyl-benzimidazol-5-yl}-N-methyl-2-[4-(2-naphthyl-N-methylamino)-piperid-1-yl]-acetamide, dihydrochloride]: 4 to 30 nM; for `Cn1c(CCc2ccc(C(=N)N)cc2)nc2cc(N(Cc3cccc4ccccc34)C(=O)CN3CCC(Nc4ccc(-c5ccccc5)cc4)CC3)ccc21` [Example 23, N-{2-[2-(4-Amidinophenyl)-ethyl]-1-methyl-benzimidazol-5-yl}-N-[naphth-1-ylmethyl]-2-[4-(4-biphenylamino)-piperid-1-yl]-acetamide, dihydrochloride]: 4 to 30 nM.
The same measure for `Cc1ccccc1NC1CCN(CC(=O)N(C)c2ccc3c(c2)nc(CCc2ccc(C(=N)N)cc2)n3C)CC1` [Example 63, dihydrochloride]: 4 to 30 nM.
As for `Cn1c(CCc2ccc(C(=N)N)cc2)nc2cc(N(Cc3cccc4ccccc34)C(=O)CN3CCC(Nc4cccnc4)CC3)ccc21` [Example 26, N-{2-[2-(4-Amidinophenyl)-ethyl]-1-methyl-benzimidazol-5-yl}-N-[naphth-1-ylmethyl]-2-[4-(3-pyridylamino)-piperid-1-yl]-acetamide, dihydrochloride], the figure is 0.5 to 3 nM; as for `Cn1c(CCc2ccc(C(=N)N)cc2)nc2cc(N(Cc3cccc4ccccc34)C(=O)CN3CCC(Nc4ccc5ccccc5c4)CC3)ccc21` [Example 22, N-{2-[2-(4-Amidinophenyl)-ethyl]-1-methyl-benzimidazol-5-yl}-N-[naphth-1-ylmethyl]-2-[4-(2-naphthylamino)-piperid-1-yl]-acetamide, dihydrochloride], 0.5 to 3 nM; as for `Cn1c(CCc2ccc(C(=N)N)cc2)nc2cc(N(Cc3cccc4ccccc34)C(=O)CN3CCC(Nc4ccccc4)CC3)ccc21` [Example 1, N-{2-[2-(4-Amidinophenyl)-ethyl]-1-methyl-benzimidazol-5-yl}-N-[naphth-1-ylmethyl]-2-(4-phenylamino-piperid-1-yl)-acetamide, Dihydrochloride], 4 to 30 nM.
Regarding `CN(C(=O)CN1CCC(Nc2ccccc2)CC1)c1ccc2c(c1)nc(CCc1ccc(C(=N)N)cc1)n2C` [Example 108, N-{2-[2-(4-Amidinophenyl)-ethyl]-1-methyl-benzimidazol-5-yl}-N-methyl-2-[4-(phenylamino)-piperid-1-yl]-acetamide, dihydrochloride], the IC50 is 4 to 30 nM.
As for `CN(C(=O)CN1CCC(Nc2ccccc2C(=N)N)CC1)c1ccc2c(c1)nc(CCc1ccc(C(=N)N)cc1)n2C` [Example 40, N-{2-[2-(4-Amidinophenyl)-ethyl]-1-methyl-benzimidazol-5-yl}-N-methyl-2-[4-(2-amidinophenylamino)-piperid-1-yl]-acetamide, dihydrochloride], the figure is 31 to 1000 nM; as for `Cn1c(CCc2ccc(C(=N)N)cc2)nc2cc(N(Cc3cccc4ccccc34)C(=O)CN3CCC(NC(=O)c4ccccn4)CC3)ccc21` [Example 7, N-{2-[2-(4-Amidinophenyl)-ethyl]-1-methyl-benzimidazol-5-yl}-N-[naphth-1-ylmethyl]-2-[4-(2-pyridylcarboxylic acid amide)-piperid-1-yl]-acetamide, dihydrochloride], 4 to 30 nM; as for `CN(C(=O)CN1CCC(Nc2ccc3ccccc3c2)CC1)c1ccc2c(c1)nc(CCc1ccc(C(=N)N)cc1)n2C` [Example 30, N-{2-[2-(4-Amidinophenyl)-ethyl]-1-methyl-benzimidazol-5-yl}-N-methyl-2-[4-(2-naphthylamino)-piperid-1-yl]-acetamide, dihydrochloride], 0.5 to 3 nM.
On to `CN(C(=O)CN1CCC(Nc2ccc(Cl)cc2)CC1)c1ccc2c(c1)nc(CCc1ccc(C(=N)N)cc1)n2C` [Example 105, N-{2-[2-(4-Amidinophenyl)-ethyl]-1-methyl-benzimidazol-5-yl}-N-methyl-2-[4-(4-chlorophenylamino)-piperid-1-yl]-acetamide, dihydrochloride], for which the IC50 was 0.5 to 3 nM.
The same measure for `CN(C(=O)CN1CCC(Nc2ccccc2C(F)(F)F)CC1)c1ccc2c(c1)nc(CCc1ccc(C(=N)N)cc1)n2C` [Example 38, N-{2-[2-(4-Amidinophenyl)-ethyl]-1-methyl-benzimidazol-5-yl}-N-methyl-2-[4-(2-trifluoromethylphenylamino)-piperid-1-yl]-acetamide, dihydrochloride]: 4 to 30 nM; for `COc1ccc(NC2CCN(CC(=O)N(Cc3cccc4ccccc34)c3ccc4c(c3)nc(CCc3ccc(C(=N)N)cc3)n4C)CC2)cc1` [Example 14, N-{2-[2-(4-Amidinophenyl)-ethyl]-1-methyl-benzimidazol-5-yl}-N-[naphth-1-ylmethyl]-2-[4-(4-methoxyphenylamino)-piperid-1-yl]-acetamide, dihydrochloride]: 4 to 30 nM.

Source of the values: patent publication US6656956B2, “Benzimidazole derivatives, processes for preparing them and their use as pharmaceutical compositions” (Boehringer Ingelheim Pharma KG, priority 2001, dated 2003).
